Literature values, collected in US7923560B2, “Delivery of immune response modifier compounds” (3M Innovative Properties Company, priority 2003, dated 2011).

Legend:
TLR 7 = molecular target: T1, TLR 7 (Homo sapiens, UniProt Q9NYK1)
T1 construct: expressed in transfected cells
T1 sequence (Q9NYK1 27-1049): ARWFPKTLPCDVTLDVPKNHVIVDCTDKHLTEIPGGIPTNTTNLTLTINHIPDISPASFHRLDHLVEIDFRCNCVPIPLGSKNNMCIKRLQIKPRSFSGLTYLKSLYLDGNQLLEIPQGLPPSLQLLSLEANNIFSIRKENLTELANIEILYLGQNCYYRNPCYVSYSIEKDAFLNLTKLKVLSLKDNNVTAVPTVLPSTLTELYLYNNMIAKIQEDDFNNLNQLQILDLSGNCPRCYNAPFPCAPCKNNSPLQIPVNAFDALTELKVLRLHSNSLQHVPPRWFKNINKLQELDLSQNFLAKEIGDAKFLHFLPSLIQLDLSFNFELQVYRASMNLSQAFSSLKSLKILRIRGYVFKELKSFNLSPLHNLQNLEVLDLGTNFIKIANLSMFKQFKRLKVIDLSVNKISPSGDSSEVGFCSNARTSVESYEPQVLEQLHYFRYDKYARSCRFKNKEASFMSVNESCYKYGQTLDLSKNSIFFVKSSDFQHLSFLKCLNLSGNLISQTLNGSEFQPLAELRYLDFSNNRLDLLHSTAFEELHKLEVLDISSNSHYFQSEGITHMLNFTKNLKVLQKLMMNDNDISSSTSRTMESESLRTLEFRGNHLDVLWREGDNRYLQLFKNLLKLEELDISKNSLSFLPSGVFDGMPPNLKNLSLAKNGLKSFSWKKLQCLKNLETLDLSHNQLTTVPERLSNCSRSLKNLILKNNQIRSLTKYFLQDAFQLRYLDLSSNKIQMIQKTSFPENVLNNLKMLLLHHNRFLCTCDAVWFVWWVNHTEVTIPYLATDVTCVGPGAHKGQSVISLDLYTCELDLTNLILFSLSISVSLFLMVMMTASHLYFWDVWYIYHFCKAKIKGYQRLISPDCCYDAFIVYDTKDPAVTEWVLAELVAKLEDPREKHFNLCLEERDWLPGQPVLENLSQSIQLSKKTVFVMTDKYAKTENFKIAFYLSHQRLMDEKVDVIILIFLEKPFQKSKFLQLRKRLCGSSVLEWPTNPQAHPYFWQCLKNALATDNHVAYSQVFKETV

TLR 8 = molecular target: T2, TLR 8 (Homo sapiens, UniProt Q9NR97)
T2 construct: expressed in transfected cells
T2 sequence (Q9NR97 27-1041): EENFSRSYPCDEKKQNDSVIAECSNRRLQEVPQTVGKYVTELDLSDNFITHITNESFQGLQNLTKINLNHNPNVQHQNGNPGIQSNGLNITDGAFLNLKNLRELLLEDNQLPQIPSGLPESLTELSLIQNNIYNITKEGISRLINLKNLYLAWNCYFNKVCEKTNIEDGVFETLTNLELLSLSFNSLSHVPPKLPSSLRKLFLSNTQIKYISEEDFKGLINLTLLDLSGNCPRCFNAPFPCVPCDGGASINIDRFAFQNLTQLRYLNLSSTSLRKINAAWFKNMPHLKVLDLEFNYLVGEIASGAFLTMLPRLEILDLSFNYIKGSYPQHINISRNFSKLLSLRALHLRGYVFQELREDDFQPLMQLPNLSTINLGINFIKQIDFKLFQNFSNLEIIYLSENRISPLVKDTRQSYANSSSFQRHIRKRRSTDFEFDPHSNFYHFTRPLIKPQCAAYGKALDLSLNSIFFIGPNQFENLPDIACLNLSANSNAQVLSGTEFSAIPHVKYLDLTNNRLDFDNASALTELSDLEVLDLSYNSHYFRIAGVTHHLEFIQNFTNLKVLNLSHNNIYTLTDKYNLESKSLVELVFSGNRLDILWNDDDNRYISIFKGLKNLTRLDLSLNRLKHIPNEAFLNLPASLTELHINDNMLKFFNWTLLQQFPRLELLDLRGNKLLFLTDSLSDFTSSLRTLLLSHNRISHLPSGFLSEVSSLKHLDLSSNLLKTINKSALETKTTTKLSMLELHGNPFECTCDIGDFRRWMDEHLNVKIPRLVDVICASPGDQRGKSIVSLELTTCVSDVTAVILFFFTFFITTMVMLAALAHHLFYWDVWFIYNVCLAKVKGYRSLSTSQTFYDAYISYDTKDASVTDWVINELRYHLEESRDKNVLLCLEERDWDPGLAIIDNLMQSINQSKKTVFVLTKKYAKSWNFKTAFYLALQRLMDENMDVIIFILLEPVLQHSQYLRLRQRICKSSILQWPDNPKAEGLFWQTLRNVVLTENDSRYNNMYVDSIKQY

[1] = delivered systemically, compared to imiquimod

TLR 7 agonist activity (TLR 7) | TLR 8 agonist activity (TLR 8) | CNS effect [1] | SMILES
a TLR 7 and TLR 8 agonist | a TLR 7 and TLR 8 agonist | – | CCOCc1nc2c(N)nc3c(c2n1CC(C)(C)O)CCCC3 [4-amino-2-(ethoxymethyl)-α,α-dimethyl-6,7,8,9-tetrahydro-1H-imidazo[4,5-c]quinoline-1-ethanol]
predominantly a TLR 7 agonist | not a substantial TLR 8 agonist | much lower CNS effect | CC(C)(O)Cn1cnc2c(N)nc3ccccc3c21 [4-amino-α,α-dimethyl-1H-imidazo[4,5-c]quinoline-1-ethanol]
combination TLR 7 and TLR 8 agonist | combination TLR 7 and TLR 8 agonist | – | CCOCc1nc2c(N)nc3ccccc3c2n1CC(C)(C)O [Resiquimod, 4-amino-2-ethoxymethyl-α,α-dimethyl-1H-imidazo[4,5-c]quinoline-1-ethanol]
